Measured values published in paper PMC8500670, “A selective WDR5 degrader inhibits acute myeloid leukemia in patient-derived mouse models” (Science translational medicine, 2021).
Where two headings read alike, the source gives them in different places.

Key:
[1] = molecular target: WDR5 (WD40 repeat domain protein 5) (Homo sapiens, UniProt P61964); assay: ITC; […]-Å crystal structure of WDR5-MS67-VCB ternary complex; type: binding
von Hippel–Lindau (VHL) = von Hippel–Lindau (VHL) (Homo sapiens, UniProt P40337); assay: as above; type: binding
Abl = molecular target: T1, Abl (Homo sapiens, UniProt P00519); assay: biochemical; parameters: kinase selectivity panel, single concentration, duplicate
T1 construct: gene ABL1
Protocol: (§1) We next assessed selectivity of MS67 against 22 protein methyltransferases (table S2) and a broad panel of common drug targets including 45 kinases (table S3) and 44 G protein–coupled receptors (GPCR), ion channels, and transporters (table S4). […] We subsequently determined that MS67 had moderate binding affinity (Ki = 1.0 ± 0.8 μM) to Sigma 2 receptor (fig. S10).

Aurora-A = molecular target: T2, Aurora-A (Homo sapiens, UniProt O14965); assay: biochemical; parameters: kinase selectivity panel, single concentration, duplicate
T2 construct: gene AURKA
Protocol: as §1

CHK2 = molecular target: T3, CHK2 (Homo sapiens, UniProt O96017); assay: biochemical; parameters: kinase selectivity panel, single concentration, duplicate
T3 construct: gene CHEK2
Protocol: as §1

EGFR = EGFR (Homo sapiens, UniProt P00533); assay: biochemical; parameters: kinase selectivity panel, single concentration, duplicate
Protocol: as §1

EphB4 = EphB4 (Homo sapiens, UniProt P54760); assay: biochemical; parameters: kinase selectivity panel, single concentration, duplicate
Protocol: as §1

JAK3 = JAK3 (Homo sapiens, UniProt P52333); assay: biochemical; parameters: kinase selectivity panel, single concentration, duplicate
Protocol: as §1

MARK1 = MARK1 (Homo sapiens, UniProt Q9P0L2); assay: biochemical; parameters: kinase selectivity panel, single concentration, duplicate
Protocol: as §1

Pim-2 = molecular target: T4, Pim-2 (Homo sapiens, UniProt Q9P1W9); assay: biochemical; parameters: kinase selectivity panel, single concentration, duplicate
T4 construct: gene PIM2
Protocol: as §1

5-HT1B = molecular target: T5, 5-HT1B (Homo sapiens, UniProt P28222); assay: biochemical; parameters: NIMH-PDSP radioligand binding assays, percent inhibition of radioligand binding, quadruplicate
T5 construct: gene HTR1B

5-HT1E = molecular target: T6, 5-HT1E (Homo sapiens, UniProt P28566); assay: biochemical; parameters: NIMH-PDSP radioligand binding assays, percent inhibition of radioligand binding, quadruplicate
T6 construct: gene HTR1E

5-HT2B = molecular target: T7, 5-HT2B (Homo sapiens, UniProt P41595); assay: biochemical; parameters: NIMH-PDSP radioligand binding assays, percent inhibition of radioligand binding, quadruplicate
T7 construct: gene HTR2B

5-HT2C = molecular target: T8, 5-HT2C (Homo sapiens, UniProt P28335); assay: biochemical; parameters: NIMH-PDSP radioligand binding assays, percent inhibition of radioligand binding, quadruplicate
T8 construct: gene HTR2C

Alpha2C = molecular target: T9, Alpha2C (Homo sapiens, UniProt P18825); assay: biochemical; parameters: NIMH-PDSP radioligand binding assays, percent inhibition of radioligand binding, quadruplicate
T9 construct: gene ADRA2C

Beta2 = molecular target: T10, Beta2 (Homo sapiens, UniProt P07550); assay: biochemical; parameters: NIMH-PDSP radioligand binding assays, percent inhibition of radioligand binding, quadruplicate
T10 construct: gene ADRB2

D4 = molecular target: T11, D4 (Homo sapiens, UniProt P21917); assay: biochemical; parameters: NIMH-PDSP radioligand binding assays, percent inhibition of radioligand binding, quadruplicate
T11 construct: gene DRD4

M5 = molecular target: T12, M5 (Homo sapiens, UniProt P08912); assay: biochemical; parameters: NIMH-PDSP radioligand binding assays, percent inhibition of radioligand binding, quadruplicate
T12 construct: gene CHRM5

NET = molecular target: T13, NET (Homo sapiens, UniProt P23975); assay: biochemical; parameters: NIMH-PDSP radioligand binding assays, percent inhibition of radioligand binding, quadruplicate
T13 construct: gene SLC6A2

SERT = molecular target: T14, SERT (Homo sapiens, UniProt P31645); assay: biochemical; parameters: NIMH-PDSP radioligand binding assays, percent inhibition of radioligand binding, quadruplicate
T14 construct: gene SLC6A4

EZH1 Complex = EZH1 Complex (Homo sapiens, UniProt Q92800); assay: biochemical; parameters: Complex; protein methyltransferase selectivity panel, enzyme activity relative to DMSO controls, single concentration in duplicate; conditions: Substrate:=Core Histone
EZH1 Complex, sequence (Q92800 whole entry): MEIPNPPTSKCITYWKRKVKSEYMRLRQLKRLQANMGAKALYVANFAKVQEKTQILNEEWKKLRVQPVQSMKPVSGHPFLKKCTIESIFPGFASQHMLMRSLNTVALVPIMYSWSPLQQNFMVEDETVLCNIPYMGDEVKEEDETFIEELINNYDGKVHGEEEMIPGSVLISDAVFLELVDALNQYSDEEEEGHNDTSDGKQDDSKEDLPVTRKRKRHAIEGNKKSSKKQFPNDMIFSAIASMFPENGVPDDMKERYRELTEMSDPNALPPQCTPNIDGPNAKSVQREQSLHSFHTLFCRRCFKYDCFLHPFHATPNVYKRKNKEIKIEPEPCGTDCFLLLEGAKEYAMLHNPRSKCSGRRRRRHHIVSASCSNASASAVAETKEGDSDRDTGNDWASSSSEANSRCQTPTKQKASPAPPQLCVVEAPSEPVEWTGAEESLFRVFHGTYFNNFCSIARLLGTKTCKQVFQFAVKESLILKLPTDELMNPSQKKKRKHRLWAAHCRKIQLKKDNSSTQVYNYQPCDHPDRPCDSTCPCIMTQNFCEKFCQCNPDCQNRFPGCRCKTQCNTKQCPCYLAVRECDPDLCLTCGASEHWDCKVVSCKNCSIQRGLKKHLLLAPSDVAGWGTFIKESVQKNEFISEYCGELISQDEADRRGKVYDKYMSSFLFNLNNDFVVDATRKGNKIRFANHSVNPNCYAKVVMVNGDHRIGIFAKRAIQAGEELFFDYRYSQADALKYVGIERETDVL
EZH1 Complex, sequence (O75530 whole entry partner): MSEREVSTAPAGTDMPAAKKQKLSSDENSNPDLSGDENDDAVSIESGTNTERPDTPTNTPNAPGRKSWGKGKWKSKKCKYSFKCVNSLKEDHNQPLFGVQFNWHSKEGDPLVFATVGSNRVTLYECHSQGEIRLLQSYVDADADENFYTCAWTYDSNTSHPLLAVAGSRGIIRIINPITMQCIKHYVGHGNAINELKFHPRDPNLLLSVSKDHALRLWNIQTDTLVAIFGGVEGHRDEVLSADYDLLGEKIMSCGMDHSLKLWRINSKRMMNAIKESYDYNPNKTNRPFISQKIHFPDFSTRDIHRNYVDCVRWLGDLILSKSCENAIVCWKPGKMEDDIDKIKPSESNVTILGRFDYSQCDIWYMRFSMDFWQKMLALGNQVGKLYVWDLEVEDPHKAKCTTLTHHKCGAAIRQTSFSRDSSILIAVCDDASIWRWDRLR
EZH1 Complex, sequence (Q09028 whole entry partner): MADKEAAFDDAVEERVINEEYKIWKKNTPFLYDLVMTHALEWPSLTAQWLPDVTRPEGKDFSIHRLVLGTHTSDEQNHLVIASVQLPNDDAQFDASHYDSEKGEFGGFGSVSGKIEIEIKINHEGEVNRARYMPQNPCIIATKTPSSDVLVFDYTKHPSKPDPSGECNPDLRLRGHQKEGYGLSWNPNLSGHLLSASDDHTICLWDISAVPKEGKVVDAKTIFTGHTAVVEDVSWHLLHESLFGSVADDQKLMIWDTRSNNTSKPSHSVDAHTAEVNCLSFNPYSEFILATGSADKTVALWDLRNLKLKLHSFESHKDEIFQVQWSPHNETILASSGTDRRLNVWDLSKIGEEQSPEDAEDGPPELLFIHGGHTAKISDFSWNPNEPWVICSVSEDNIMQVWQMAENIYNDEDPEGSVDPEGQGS
EZH1 Complex, sequence (Q15022 whole entry partner): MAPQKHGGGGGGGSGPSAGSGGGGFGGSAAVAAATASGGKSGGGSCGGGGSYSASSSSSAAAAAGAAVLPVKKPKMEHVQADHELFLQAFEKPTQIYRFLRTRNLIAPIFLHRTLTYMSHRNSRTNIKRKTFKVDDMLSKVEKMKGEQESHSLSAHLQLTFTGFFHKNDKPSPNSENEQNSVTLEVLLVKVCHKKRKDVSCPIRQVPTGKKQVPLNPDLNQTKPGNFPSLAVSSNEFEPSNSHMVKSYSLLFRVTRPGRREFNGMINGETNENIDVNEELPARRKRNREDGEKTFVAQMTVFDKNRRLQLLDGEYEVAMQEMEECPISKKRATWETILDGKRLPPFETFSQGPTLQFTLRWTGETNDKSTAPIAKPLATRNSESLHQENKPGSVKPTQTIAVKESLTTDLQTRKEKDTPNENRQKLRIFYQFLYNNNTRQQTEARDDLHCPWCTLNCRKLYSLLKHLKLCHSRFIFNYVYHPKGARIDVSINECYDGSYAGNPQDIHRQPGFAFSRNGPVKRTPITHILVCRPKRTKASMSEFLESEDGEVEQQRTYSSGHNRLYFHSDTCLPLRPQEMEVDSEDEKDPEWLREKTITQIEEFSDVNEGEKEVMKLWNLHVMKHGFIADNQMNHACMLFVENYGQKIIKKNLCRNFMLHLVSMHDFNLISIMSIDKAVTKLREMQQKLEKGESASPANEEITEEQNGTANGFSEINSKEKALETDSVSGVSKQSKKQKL
EZH1 Complex, sequence (Q6ZN18 whole entry partner): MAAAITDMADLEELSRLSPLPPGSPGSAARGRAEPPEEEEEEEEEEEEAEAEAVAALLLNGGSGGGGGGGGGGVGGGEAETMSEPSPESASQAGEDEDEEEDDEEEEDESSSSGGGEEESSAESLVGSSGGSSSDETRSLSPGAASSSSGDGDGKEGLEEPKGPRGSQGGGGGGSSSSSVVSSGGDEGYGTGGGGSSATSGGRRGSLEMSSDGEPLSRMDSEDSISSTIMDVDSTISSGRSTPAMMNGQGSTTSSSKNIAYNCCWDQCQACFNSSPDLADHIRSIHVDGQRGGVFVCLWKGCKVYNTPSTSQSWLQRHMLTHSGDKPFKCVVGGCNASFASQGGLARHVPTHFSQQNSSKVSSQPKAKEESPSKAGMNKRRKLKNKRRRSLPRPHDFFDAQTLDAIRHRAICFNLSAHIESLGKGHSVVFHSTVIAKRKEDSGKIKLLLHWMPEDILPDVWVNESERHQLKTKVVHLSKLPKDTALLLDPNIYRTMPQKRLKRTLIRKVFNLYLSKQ
Protocol: as §1

EZH2 Complex = EZH2 Complex (Homo sapiens, UniProt Q15910); assay: biochemical; parameters: Complex; protein methyltransferase selectivity panel, enzyme activity relative to DMSO controls, single concentration in duplicate; conditions: Substrate:=Core Histone
EZH2 Complex, sequence (Q15910 whole entry): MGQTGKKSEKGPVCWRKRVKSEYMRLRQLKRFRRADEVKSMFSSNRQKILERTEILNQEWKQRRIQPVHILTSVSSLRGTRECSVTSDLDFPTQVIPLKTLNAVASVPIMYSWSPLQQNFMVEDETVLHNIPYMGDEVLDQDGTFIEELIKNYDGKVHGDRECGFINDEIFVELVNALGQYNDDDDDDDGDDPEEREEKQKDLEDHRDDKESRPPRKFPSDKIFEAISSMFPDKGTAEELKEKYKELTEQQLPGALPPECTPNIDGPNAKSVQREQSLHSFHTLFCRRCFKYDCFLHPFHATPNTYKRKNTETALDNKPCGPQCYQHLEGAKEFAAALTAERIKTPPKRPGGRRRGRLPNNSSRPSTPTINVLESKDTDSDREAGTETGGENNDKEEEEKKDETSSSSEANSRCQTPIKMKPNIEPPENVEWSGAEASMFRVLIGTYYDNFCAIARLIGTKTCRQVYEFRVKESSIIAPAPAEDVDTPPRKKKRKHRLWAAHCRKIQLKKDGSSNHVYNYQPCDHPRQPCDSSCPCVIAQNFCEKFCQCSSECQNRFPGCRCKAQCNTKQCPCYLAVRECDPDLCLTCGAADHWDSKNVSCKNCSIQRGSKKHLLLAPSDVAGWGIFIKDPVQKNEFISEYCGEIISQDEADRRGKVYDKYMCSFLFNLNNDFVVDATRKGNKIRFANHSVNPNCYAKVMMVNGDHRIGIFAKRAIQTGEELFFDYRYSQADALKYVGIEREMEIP
EZH2 Complex, sequence (O75530 whole entry partner): as the sequence (O75530 whole entry partner) above
EZH2 Complex, sequence (Q09028 whole entry partner): as the sequence (Q09028 whole entry partner) above
EZH2 Complex, sequence (Q15022 whole entry partner): as the sequence (Q15022 whole entry partner) above
EZH2 Complex, sequence (Q6ZN18 whole entry partner): as the sequence (Q6ZN18 whole entry partner) above
Protocol: as §1

PRMT5/MEP50 Complex = PRMT5/MEP50 Complex (Homo sapiens, UniProt O14744); assay: biochemical; parameters: Complex; protein methyltransferase selectivity panel, enzyme activity relative to DMSO controls, single concentration in duplicate; conditions: Substrate:=Histone H2A
PRMT5/MEP50 Complex, sequence (O14744 whole entry): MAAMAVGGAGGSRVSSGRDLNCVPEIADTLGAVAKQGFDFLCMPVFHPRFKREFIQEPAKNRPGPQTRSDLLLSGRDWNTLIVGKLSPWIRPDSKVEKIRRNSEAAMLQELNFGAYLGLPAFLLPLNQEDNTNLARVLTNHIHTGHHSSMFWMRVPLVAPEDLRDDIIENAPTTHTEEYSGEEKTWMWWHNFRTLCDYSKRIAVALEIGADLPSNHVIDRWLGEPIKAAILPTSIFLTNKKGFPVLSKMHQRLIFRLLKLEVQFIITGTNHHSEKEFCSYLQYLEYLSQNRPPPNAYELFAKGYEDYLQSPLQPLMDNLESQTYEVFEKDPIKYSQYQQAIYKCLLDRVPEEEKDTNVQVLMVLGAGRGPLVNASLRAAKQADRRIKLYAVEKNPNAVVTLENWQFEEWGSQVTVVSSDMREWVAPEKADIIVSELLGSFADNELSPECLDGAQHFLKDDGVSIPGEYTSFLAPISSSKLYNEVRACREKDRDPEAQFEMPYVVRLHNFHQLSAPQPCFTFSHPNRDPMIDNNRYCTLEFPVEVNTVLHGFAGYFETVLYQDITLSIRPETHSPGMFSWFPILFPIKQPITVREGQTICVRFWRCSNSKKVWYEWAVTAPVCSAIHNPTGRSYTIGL
PRMT5/MEP50 Complex, sequence (Q9BQA1 whole entry partner): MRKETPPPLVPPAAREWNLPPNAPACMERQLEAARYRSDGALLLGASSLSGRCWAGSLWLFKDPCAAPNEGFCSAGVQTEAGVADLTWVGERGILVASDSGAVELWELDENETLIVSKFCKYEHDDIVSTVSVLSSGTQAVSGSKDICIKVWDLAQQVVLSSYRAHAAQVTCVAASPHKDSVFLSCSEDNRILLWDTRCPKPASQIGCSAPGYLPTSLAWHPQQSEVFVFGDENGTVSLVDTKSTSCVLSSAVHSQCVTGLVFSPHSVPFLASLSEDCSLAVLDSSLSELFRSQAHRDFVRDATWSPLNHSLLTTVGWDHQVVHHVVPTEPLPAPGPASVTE
Protocol: as §1

SET1b Complex [2] = molecular target: T15, SET1b Complex (Homo sapiens, UniProt Q9UPS6); assay: biochemical; parameters: gene SETD1B; Complex; protein methyltransferase selectivity panel, enzyme activity relative to DMSO controls, single concentration in duplicate; conditions: Substrate:=Core Histone
Protocol: as §1

SET1b Complex [3] = molecular target: T15, SET1b Complex; assay: biochemical; parameters: gene SETD1B; complex; protein methyltransferase inhibition panel, single concentration, duplicate
Protocol: as §1

[4] = read-out: Enzyme % Activity (relative to DMSO controls) / MS67 / 10 / Data 1:
[5] = read-out: Enzyme % Activity (relative to DMSO controls) / MS67 / 10 / Data 2:

Cc1ncsc1-c1ccc([C@H](C)NC(=O)[C@@H]2C[C@@H](O)CN2C(=O)[C@@H](NC(=O)CNC(=O)c2ccc(F)c(-c3ccc(N4C[C@@H](C)N(C)[C@@H](C)C4)c(NC(=O)c4c[nH]c(=O)cc4C(F)(F)F)c3)c2)C(C)(C)C)cc1 [MS67]
Kd [1]: 63 ± 10 nM
Kd (von Hippel–Lindau (VHL)): 140 ± 7.2 nM
inhibition at 1 µM (Abl): < 10%
inhibition at 1 µM (Aurora-A): < 10%
inhibition at 1 µM (CHK2): < 10%
inhibition at 1 µM (EGFR): < 10%
inhibition at 1 µM (EphB4): < 10%
inhibition at 1 µM (JAK3): < 10%
inhibition at 1 µM (MARK1): < 10%
inhibition at 1 µM (Pim-2): < 10%
inhibition at 1 µM (5-HT1B): < 10%
inhibition at 1 µM (5-HT1E): < 10%
inhibition at 1 µM (5-HT2B): < 10%
inhibition at 1 µM (5-HT2C): < 10%
inhibition at 1 µM (Alpha2C): < 10%
inhibition at 1 µM (Beta2): < 10%
inhibition at 1 µM (D4): < 10%
inhibition at 1 µM (M5): < 10%
inhibition at 1 µM (NET): < 10%
inhibition at 1 µM (SERT): < 10%
remaining activity at 10 µM (EZH1 Complex; [4]): 97.1%
remaining activity at 10 µM (EZH1 Complex; [5]): 103%
remaining activity at 10 µM (EZH2 Complex; [4]): 106%
remaining activity at 10 µM (EZH2 Complex; [5]): 101%
remaining activity at 10 µM (PRMT5/MEP50 Complex; [4]): 96.2%
remaining activity at 10 µM (PRMT5/MEP50 Complex; [5]): 97.3%
remaining activity at 10 µM (SET1b Complex [2]; [4]): 94.9%
remaining activity at 10 µM (SET1b Complex [2]; [5]): 92.1%
inhibition at 10 µM (SET1b Complex [3]): < 10%
